Assays:
FPRL-1 = FPRL-1 (Homo sapiens (Human), UniProt P25090); experiment: FPRL-1 Ga16-CHO EC50 (efficacy); type: cell-based; conditions: for FPRL-1 Ga16-CHO (efficacy) / FPRL-1 Gal16-CHO (efficacy): value in brackets; for FPRL-1 Gal16-CHO (efficacy): Table 3
[1] = tested on: LL-37-induced inflammation in mouse ears; experiment: LL37-induced model of rosacea in mice (ear thickness); type: in vivo; conditions: topical application to ears; FIG. 2; p<0.05 vs. vehicle at all time points
Method: Prior to dosing, animals are lightly anaesthetized with isofluorane and baseline right and left ear thickness measurements are made with a digital caliper (Mitutoyo 293-340). At t=−1 hrs, animals are lightly anaesthetized with isoflurane to allow topical application (dorsal side) of 10 μL of FPR2 agonist formulated in a vehicle consisting of PBS:ethanol (50:50), or vehicle control to both ears. At t=0 hr, mice are re-anaesthetized. Following ear thickness measurements, 20 uL of LL-37 (100 μM) is injected into the right ear, while PBS is injected into the left ear. Additional ear thickness measurements are taken at t=3 and 6 hours. After the last time point, mice are euthanized by CO2 inhalation and ears collected for additional analyses.

human FPR2 receptor = human FPR2 receptor (Homo sapiens (Human), UniProt P25090); experiment: FLIPR Ca+2 response in HEK-Gα16 cells stably expressing the human FPR2 receptor; type: cell-based; parameters: FPR2 (% eff): unit not given here; conditions: Table 4; value in brackets, given mostly as fraction
Chain of human FPR2 receptor (P25090 whole entry): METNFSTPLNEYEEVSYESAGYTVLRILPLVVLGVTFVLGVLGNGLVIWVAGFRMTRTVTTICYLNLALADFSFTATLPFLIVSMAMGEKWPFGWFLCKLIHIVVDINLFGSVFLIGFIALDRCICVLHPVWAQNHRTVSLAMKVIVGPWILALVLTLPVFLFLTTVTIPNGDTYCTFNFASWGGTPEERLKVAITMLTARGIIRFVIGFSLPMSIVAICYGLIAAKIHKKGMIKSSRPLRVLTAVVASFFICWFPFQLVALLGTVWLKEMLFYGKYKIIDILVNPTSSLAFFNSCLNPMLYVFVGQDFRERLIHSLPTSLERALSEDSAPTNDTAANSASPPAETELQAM
In short: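 HEK-Gα16 cells stably expressing human FPR2, loaded with 2 μM Fluo-4 in HBSS/20 mM HEPES for 40 min at 37° C., then washed. Ligands added in HBSS/Hepes and Ca+2 responses recorded on FLIPR in relative fluorescence units.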

Chain of FPRL-1 (P25090 whole entry): as above

Compound: O=C(Nc1ccc(Br)cc1)NC(Cc1ccccc1)C(=O)O (stereo in doubt) [(2S)-2-({[(4- bromophenyl)amino]carbonyl}amino)- 3-phenylpro] [(2S)-2-({[(4-bromophenyl)amino]carbonyl}amino)-3-phenylpropanoic acid]
- FPRL-1 Ga16-CHO (efficacy) (FPRL-1; Table 1): 1.0

Compound: O=C(Nc1ccc(Br)cc1)NC(Cc1ccccc1)C(=O)O (stereo in doubt) [(2S)-2-({[(4-bromophenyl)amino]carbonyl}amino)-3-phenylpropanoic acid]
- EC50 (FPRL-1; Table 1): 31 nM

Compound: CC1(CCc2ccccc2)NC(=O)N(NC(=O)Nc2ccccc2F)C1=O (stereo not shown) [1-(2-fluorophenyl)-3-[4-methyl-2,5-dioxo-4-(2-phenylethyl)imidazolidin-1-yl]urea]
- FPRL-1 Ga16-CHO (efficacy) (FPRL-1; Table 2): 0.94

Compound: O=C(Nc1ccc(Cl)cc1)NN1C(=O)NC2(CCCCC2)C1=O [1-(4-chlorophenyl)-3-(2,4-dioxo-1,3-diazaspiro[4,5]decan-3-yl) urea]
- FPRL-1 Ga16-CHO (efficacy) (FPRL-1; Table 2): 0.98

Compound: CCC1(C)NC(=O)N(NC(=O)Nc2ccc(Cl)cc2)C1=O (stereo not shown) [1-(4-chlorophenyl)-3-(4-ethyl-4-methyl-2,5-dioxoimidazolidin-1-yl)urea]
- FPRL-1 Ga16-CHO (efficacy) (FPRL-1; Table 2): 0.96

Compound: Cc1ccc(NC(=O)NN2C(=O)NC3(CCC(C)CC3)C2=O)cc1 (stereo not shown) [1-(8-methyl-2,4-dioxo-1,3-diazaspiro[4,5]decan-3-yl)-3-(p-tolyl)urea]
- FPRL-1 Ga16-CHO (efficacy) (FPRL-1; Table 2): 0.91

Compound: CC1(CCc2ccccc2)NC(=O)N(NC(=O)Nc2ccccc2)C1=O (stereo not shown) [1-[4-methyl-2,5-dioxo-4-(2-phenylethyl)imidazolidin-1-yl]-3-phenylurea]
- FPRL-1 Ga16-CHO (efficacy) (FPRL-1; Table 2): 1.0

Compound: COc1ccc(NC(=O)NC(Cc2ccccc2)C(=O)O)cc1OC (stereo not shown) [2-({[(3,4-dimethoxyphenyl)amino]carbonyl}amino)-3-phenylpropanoic acid]
- FPRL-1 Ga16-CHO (efficacy) (FPRL-1; Table 1): 0.72

Compound: O=C(Nc1ccc(Br)cc1)NC(Cc1c[nH]c2ccccc12)C(=O)O (stereo not shown) [2-({[(4-bromophenyl)amino]carbonyl}amino)-3-(1H-indol-3-yl)propanoic acid]
- FPRL-1 Ga16-CHO (efficacy) (FPRL-1; Table 1): 0.89

Compound: O=C(Nc1ccc(Cl)cc1)NC(Cc1ccccc1)C(=O)O (stereo not shown) [2-({[(4-chlorophenyl)amino]carbonyl}amino)-3-phenylpropanoic acid]
- FPRL-1 Ga16-CHO (efficacy) (FPRL-1; Table 1): 1.0

Compound: O=C(Nc1ccc(OC(F)(F)F)cc1)NC(Cc1ccccc1)C(=O)O (stereo not shown) [3-phenyl-2-[({[4-(trifluoromethoxy)phenyl]amino}carbonyl)amino]propanoic acid]
- FPRL-1 Ga16-CHO (efficacy) (FPRL-1; Table 1): 0.79

Compound: O=C(Nc1ccc(Br)cc1)N[C@H](Cc1ccccc1)C(=O)O [(2R)-2-({[(4- bromophenyl)amino]carbonyl}amino)- 3-phenylpro] [(2R)-2-({[(4-bromophenyl)amino]carbonyl}amino)-3-phenylpropanoic acid]
- FPRL-1 Ga16-CHO (efficacy) (FPRL-1; Table 1): 0.99

Compound: O=C(Nc1ccc(Cl)c(Cl)c1)N[C@@H](Cc1ccccc1)C(=O)O [(2S)-2-({[(3,4-dichlorophenyl)amino]carbonyl}amino)-3-phenylpropanoic acid]
- FPRL-1 Ga16-CHO (efficacy) (FPRL-1; Table 1): 0.57

Compound: CC(C)[C@H](NC(=O)Nc1ccc(Br)cc1F)C(=O)O [(2S)-2-({[(4-bromo-2-fluorophenyl)amino]carbonyl}amino)-3-methylbutanoic acid]
- FPRL-1 Ga16-CHO (efficacy) (FPRL-1; Table 1): 0.91

Compound: CC(C)[C@H](NC(=O)Nc1ccc(Br)cc1)C(=O)O [(2S)-2-({[(4-bromophenyl)amino]carbonyl}amino)-3-methylbutanoic acid]
- FPRL-1 Ga16-CHO (efficacy) (FPRL-1; Table 1): 0.91

Compound: COc1ccc(NC(=O)N[C@@H](Cc2ccccc2)C(=O)O)cc1 [(2S)-2-({[(4-methoxyphenyl)amino]carbonyl}amino)-3-phenylpropanoic acid]
- FPRL-1 Ga16-CHO (efficacy) (FPRL-1; Table 1): 0.90

Compound: O=C(Nc1ccc(C(F)(F)F)cc1)N[C@@H](Cc1ccccc1)C(=O)O [(2S)-3-phenyl-2-[({[4-(trifluoromethyl)phenyl]amino}carbonyl)amino]propanoic acid]
- FPRL-1 Ga16-CHO (efficacy) (FPRL-1; Table 1): 0.97

Compound: O=C(Nc1ccc(Br)cc1)N[C@H](C(=O)O)c1ccccc1 [(2S)-({[(4-bromophenyl)amino]carbonyl}amino) (phenyl)acetic acid]
- FPRL-1 Ga16-CHO (efficacy) (FPRL-1; Table 1): 0.94

Compound: CC[C@H](C)[C@H](NC(=O)Nc1ccc(Br)cc1)C(=O)O [(2S,3S)-2-({[(4-bromophenyl)amino]carbonyl}amino)-3-methylpentanoic acid]
- FPRL-1 Ga16-CHO (efficacy) (FPRL-1; Table 1): 0.89

Compound: CC[C@H](C)[C@H](NC(=O)Nc1ccc(Br)cc1)C(=O)NCC(=O)O [Compound 3, {[(2S,3S)-2-{[(4-bromophenyl)carbamoyl]amino}-3-methylpentanoyl]amino} acetic acid]
- Anti-inflammatory activity in the LL-37-induced rosacea mouse model [1]: Anti-inflammatory activity
- FPR2 (% eff) (human FPR2 receptor): 1.0

Compound: CC(C)C[C@H](NC(=O)Nc1ccc(Br)cc1F)C(=O)NCC(=O)O [Compound 7, {[(2S)-2-{[(4-bromo-2-fluorophenyl)carbamoyl]amino}-4-methylpentanoyl]amino} acetic acid]
- Anti-inflammatory activity in the LL-37-induced rosacea mouse model [1]: Anti-inflammatory activity

Compound: CC(C)C[C@H](NC(=O)Nc1ccc(Br)cc1)C(=O)NCC(=O)O [Compound 8, {[(2S)-2-{[(4-bromophenyl)carbamoyl]amino}-4-methylpentanoyl]amino} acetic acid]
- Anti-inflammatory activity in the LL-37-induced rosacea mouse model [1]: Anti-inflammatory activity

Compound: CC(C)C1(CC(=O)NCCC(=O)O)NC(=O)N(NC(=O)Nc2ccc(Br)cc2)C1=O (stereo not shown) [Compound 147, 3-({[1-{[(4-bromophenyl)carbamoyl]amino}-2,5-dioxo-4-(propan-2-yl)imidazolidin-4-yl]acetyl}amino)propanoic acid]
- FPR2 (% eff) (human FPR2 receptor): 0.99

Compound: CC(C)C1(CC(=O)NCCO)NC(=O)N(NC(=O)Nc2ccc(Br)cc2F)C1=O (stereo not shown) [Compound 148, 2-[1-{[(4-bromo-2-fluorophenyl)carbamoyl]amino}-2,5-dioxo-4-(propan-2-yl)imidazolidin-4-yl]-N-(2-hydroxyethyl)acetamide]
- FPR2 (% eff) (human FPR2 receptor): 0.98

Compound: CCOC(=O)CCC1(C(C)C)NC(=O)N(NC(=O)Nc2ccc(Br)cc2)C1=O (stereo not shown) [Compound 149, ethyl 3-[1-{[(4-bromophenyl)carbamoyl]amino}-2,5-dioxo-4-(propan-2-yl)imidazolidin-4-yl]propanoate]
- FPR2 (% eff) (human FPR2 receptor): 0.94

Compound: CC(C)C1(CCc2ccccc2C(=O)O)NC(=O)N(NC(=O)Nc2ccc(Br)cc2)C1=O (stereo not shown) [Compound 151, 2-{2-[1-{[(4-bromophenyl)carbamoyl]amino}-2,5-dioxo-4-(propan-2-yl)imidazolidin-4-yl]ethyl}benzoic acid]
- FPR2 (% eff) (human FPR2 receptor): 1.0

Compound: CCOP(=O)(CCNC(=O)CC1(C(C)C)NC(=O)N(NC(=O)Nc2ccc(Br)cc2)C1=O)OCC (stereo not shown) [Compound 152, diethyl [2-({[1-{[(4-bromophenyl)carbamoyl]amino}-2,5-dioxo-4-(propan-2-yl)imidazolidin-4-yl]acetyl}amino)ethyl] phosphonate]
- FPR2 (% eff) (human FPR2 receptor): 1.0

Compound: CCOC(=O)C1CCC2(CC1)NC(=O)N(NC(=O)Nc1ccc(Br)cc1)C2=O (stereo not shown) [Compound 153, ethyl 3-{[(4-bromophenyl)carbamoyl]amino}-2,4-dioxo-1,3-diazaspiro[4.5]decane-8-carboxylate]
- FPR2 (% eff) (human FPR2 receptor): 0.99

Compound: CC(C)C[C@H](NC(=O)Nc1ccc(Br)cc1)C(=O)N(C)CC(=O)OC(C)(C)C [Compound 154, tert-butyl {[(2S)-2-{[(4-bromophenyl)carbamoyl]amino}-4-methylpentanoyl](methyl)amino}acetate]
- FPR2 (% eff) (human FPR2 receptor): 0.85

Compound: CC(C)C[C@H](NC(=O)Nc1ccc(Br)cc1)C(=O)N(C)CC(=O)O [Compound 155, {[(2S)-2-{[(4-bromophenyl)carbamoyl]amino}-4-methylpentanoyl](methyl)amino}acetic acid]
- FPR2 (% eff) (human FPR2 receptor): 1.0

Compound: CC(C)C[C@H](NC(=O)Nc1ccc(C(F)(F)F)cc1)C(=O)NCS(=O)(=O)O [Compound 237, {[(2S)-4-methyl-2-({[4-(trifluoromethyl)phenyl]carbamoyl}amino)pentanoyl]amino}methanesulfonic acid]
- FPR2 (% eff) (human FPR2 receptor): 0.99

Compound: O=C(CN1C(=O)C2CC=CCC2C1=O)Nc1ccc(Br)cc1 (stereo not shown) [N-(4-bromophenyl)-1,3,3a,4,7,7a-hexahydro-1,3-dioxo-2H-isoindole-2-acetamide]
- FPRL-1 Gal16-CHO (efficacy) (FPRL-1): 0.98

Compound: O=C(CN1C(=O)C2C3C=CC(C3)C2C1=O)Nc1ccc(Br)cc1 (stereo not shown) [N-(4-bromophenyl)-1,3,3a,4,7,7a-hexahydro-1,3-dioxo-4,7-methano-2H-isoindole-2-acetamide]
- FPRL-1 Gal16-CHO (efficacy) (FPRL-1): 0.90

Compound: O=C(CN1C(=O)NC2(CCCCC2)C1=O)Nc1ccc(Br)cc1 [N-(4-bromophenyl)-2-(2,4-dioxo-1,3-diazaspiro[4.5]dec-3-yl)acetamide]
- FPRL-1 Gal16-CHO (efficacy) (FPRL-1): 0.89

Compound: CCC1(CC)NC(=O)N(CC(=O)Nc2ccc(Br)cc2)C1=O [N-(4-bromophenyl)-2-(4,4-diethyl-2,5-dioxoimidazolidin-1-yl)acetamide]
- FPRL-1 Gal16-CHO (efficacy) (FPRL-1): 0.98

Compound: CC1(C)NC(=O)N(CC(=O)Nc2ccc(Br)cc2)C1=O [N-(4-bromophenyl)-2-(4,4-dimethyl-2,5-dioxoimidazolidin-1-yl)acetamide]
- FPRL-1 Gal16-CHO (efficacy) (FPRL-1): 0.94

Source: US10434112B2, “Use of agonists of formyl peptide receptor 2 for treating dermatological diseases” (Allergan, Inc., priority 2013, dated 2019)
